This passage reports EC50 results from patent publication US10981902B2 (Merck Sharp & Dohme Corp., priority 2017, dated 2021).

This test has as its target T1, human M4 muscarinic acetylcholine receptor (Homo sapiens, UniProt P08173).
T1 construct: expressed in transfected cells; host or cells: CHO-K1
T1 sequence (P08173 1-479): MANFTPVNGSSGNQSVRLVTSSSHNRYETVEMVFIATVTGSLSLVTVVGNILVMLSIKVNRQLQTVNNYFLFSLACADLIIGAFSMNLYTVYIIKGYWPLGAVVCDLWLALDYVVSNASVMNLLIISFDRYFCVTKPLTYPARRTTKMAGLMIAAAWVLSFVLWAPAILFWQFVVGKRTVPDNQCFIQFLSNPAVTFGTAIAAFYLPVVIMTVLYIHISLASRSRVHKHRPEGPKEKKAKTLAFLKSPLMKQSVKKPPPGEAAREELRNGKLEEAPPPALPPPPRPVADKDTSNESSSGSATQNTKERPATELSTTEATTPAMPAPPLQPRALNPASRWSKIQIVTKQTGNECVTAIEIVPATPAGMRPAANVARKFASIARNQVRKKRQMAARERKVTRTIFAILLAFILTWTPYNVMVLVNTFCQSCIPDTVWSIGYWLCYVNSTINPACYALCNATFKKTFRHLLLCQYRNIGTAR
In words: human FLIPR-based M4 PAM assay (calcium mobilization, CHO-K1 cells with human M4 receptor and Gαqi5). The settings on record: inflection point (IP) of dose response curve, acetylcholine added at 20% of maximum response, read-out: M4 FLIPPR Hu IP. The format is cell-based. As to the method:
In a typical experiment the M4 muscarinic acetylcholine receptor modulating activity of the compounds of the present invention was determined in accordance with the following experimental method. CHO-K1 cells stably transfected with human M4 receptor and chimeric G-protein Gαqi5 (Coward P, et al., Analytical Biochemistry, 270:242-248 (1999)) are thawed from liquid N2 storage, resuspended in growth medium, plated in black, clear bottom 384 well plates, and incubated 16-20 hours at 37° C., 5% CO2. On the day of assay, growth medium is removed, the cells are washed 2 times with wash buffer, and cells are incubated in dye loading buffer at 37° C., 5% CO2 for ˜1 hour. Following dye loading the cell plates are placed in a FLIPR Tetra instrument and while monitoring dye fluorescence (excitation […]), 10 uL of test substance at increasing concentrations is added, and fluorescence values are recorded for 4 min. Next, 10 uL of acetylcholine is added (final concentration calculated so as to achieve 20% of the maximum acetycholine response), and the fluorescence reading is continued for 3.5 min. In some cases, a third addition of acetylcholine (final concentration calculated to achieve 70% of the maximal acetylcholine response) is performed. The resulting dose response curves are fit to a 4 parameter logistic equation and the final result is determined as the inflection point (IP) of the curve
CHO-K1 cells stably transfected with human M4 receptor and chimeric G-protein Gαqi5 are thawed from liquid N2 storage, resuspended in growth medium, plated in black, clear bottom 384 well plates, and incubated 16-20 hours at 37° C., 5% CO2.
On the day of assay, growth medium is removed, the cells are washed 2 times with wash buffer, and cells are incuabted in dye loading buffer at 37° C., 5% CO2 for ˜1 h. Following dye loading the cell plates are placed in a FLIPR Tetra instrument and while monitoring dye fluorescence ([…]), 10 uL of test substance at increasing concentrations is added, and fluorescence values are recorded for 4 min. Next, 10 uL of acetylcholine is added (final concentration calculated so as to achieve 20% of the maximum acetycholine response), and the fluorescence reading is continued for 3.5 min. In some cases, a third addition of acetylcholine (final concentration calculated to achieve 70% of the maximal acetylcholine response) is performed.
On the technique in general: A change in cytosolic calcium serves as a functional read-out for many receptors and channels.
As to `Cc1cn2ccc(-c3nc(C#N)ccc3-c3cnc(CC(O)C(C)C)o3)cc2n1` (stereo not drawn) [Example 92, 5-(2-(2-hydroxy-3-methylbutyl)oxazol-5-yl)-6-(2-methylimidazo [1,2-a]pyridin-7-yl)picolinonitrile], the EC50 worked out at 0.131 µM. Consider `CC1(Cc2ncc(-c3cc4c(nc3-c3cnc5c(c3)C(=O)NC5)C(F)CC4)o2)CCCC1` (single isomer, unassigned) [Example 44, 3-(7-fluoro-3-(2-((1-methylcyclopentyl)methyl)oxazol-5-yl)-6,7-dihydro-5H-cyclopenta[b]pyridin-2-yl)-6,7-dihydro-5H-pyrrolo[3,4-b]pyridin-5-one], for which the EC50 was 0.024 µM. To `CC1(Cc2ncc(-c3cc4c(nc3-c3ccc5ccc(F)nc5c3)C(=O)CC4)o2)CCCC1` [Example 43, 2-(2-fluoroquinolin-7-yl)-3-(2-((1-methylcyclopentyl)methyl)oxazol-5-yl)-5,6-dihydro-7H-cyclopenta[b]pyridin-7-one] belongs 0.043 µM; to `CC1(Cc2ncc(-c3ccc(C#N)nc3-c3cnc4c(c3)C(=O)N(CCF)C4)o2)CCCC1` [Example 96, 6-(6-(2-fluoroethyl)-5-oxo-6,7-dihydro-5H-pyrrolo[3,4-b]pyridin-3-yl)-5-(2-((1-methylcyclopentyl)methyl)oxazol-5-yl)picolinonitrile], 0.052 µM; to `N#Cc1ccc(-c2cnc(CC3CC3)o2)c(-c2ccn3ccnc3c2)n1` [Example 63, 5-(2-(cyclopropylmethyl)oxazol-5-yl)-6-(imidazo[1,2-a]pyridin-7-yl)picolinonitrile], 0.094 µM.

In the case of `N#Cc1ccc(-c2cnc(CC(F)C3CC3)o2)c(-c2ccn3ccnc3c2)n1` (stereo not drawn) [Example 84, 5-(2-(2-cyclopropyl-2-fluoroethyl)oxazol-5-yl)-6-(imidazo[1,2-a]pyridin-7-yl) picolinonitrile], the EC50 amounted to 0.03 µM. Consider `CC(Cc1ncc(-c2ccc(C#N)nc2-c2ccn3ccnc3c2)o1)C(F)F` (stereo not drawn) [Example 94, 5-(2-(3,3-difluoro-2-methylpropyl)oxazol-5-yl)-6-(imidazo[1,2-a]pyridin-7-yl) picolinonitrile], for which the EC50 worked out at 0.137 µM.

Consider `CN1Cc2ncc(-c3nc(C#N)ccc3-c3cnc(CC4(C)CCCC4)o3)cc2C1=O` [Example 12, 6-(6-methyl-5-oxo-6,7-dihydro-5H-pyrrolo[3,4-b]-pyridin-3-yl)-5-(2-((1-methyl-cyclopentyl)-methyl)oxazol-5-yl)picolinonitrile], for which the EC50 worked out at 0.034 µM. As to `CC(C)(F)CCc1ncc(-c2ccc(C#N)nc2-c2ccc3cccnc3c2)o1` [Example 103, 5-(2-(3-fluoro-3-methylbutyl)oxazol-5-yl)-6-(quinolin-7-yl)picolinonitrile], the EC50 was 0.086 µM. As to `Cc1cn2ccc(-c3nc(C#N)ccc3-c3cnc(CCC(F)(F)C(F)(F)F)o3)cc2n1` [Example 108, 6-(2-methylimidazo [1,2-a]pyridin-7-yl)-5-(2-(3,3,4,4,4-pentafluorobutyl)oxazol-5-yl) picolinonitrile], the EC50 was 0.133 µM. `CC(C)(Cc1ncc(-c2ccc(C#N)nc2-c2ccn3ccnc3c2)o1)C(F)(F)F` [Example 28, 6-(imidazo[1,2-a]-pyridin-7-yl)-5-(2-(3,3,3-trifluoro-2,2-dimethylpropyl)-oxazol-5-yl)picolino-nitrile]: the EC50 stood at 0.122 µM. As to `CC(C)(Cc1ncc(-c2ccc(C(F)F)nc2-c2ccn3ccnc3c2)o1)C(F)(F)F` [Example 25, 5-(6-(difluoromethyl)-2-(imidazo[1,2-a]-pyridin-7-yl)pyridin-3-yl)-2-(3,3,3-trifluoro-2,2-dimethylpropyl)-oxazole], the EC50 is 0.035 µM. To `CC(C)(F)Cc1ncc(-c2ccc(C#N)nc2-c2ccc3cccnc3c2)o1` [Example 80, 5-(2-(2-fluoro-2-methylpropyl)oxazol-5-yl)-6-(quinolin-7-yl) picolinonitrile] belongs 0.141 µM; to `CN1Cc2ccc(-c3nc(C#N)ccc3-c3cnc(CC(C)(C)C(F)(F)F)o3)cc2C1=O` [Example 22, 6-(2-methyl-3-oxoisoindolin-5-yl)-5-(2-(3,3,3-trifluoro-2,2-dimethylpropyl)-oxazol-5-yl)picolino-nitrile], 0.076 µM. Turning to `CCC(F)(CC)Cc1ncc(-c2ccc(C#N)nc2-c2ccc3cccnc3c2)o1` [Example 74, 5-(2-(2-ethyl-2-fluorobutyl)oxazol-5-yl)-6-(quinolin-7-yl)picolinonitrile], the EC50 stood at 0.138 µM. To `Cc1cn2ccc(-c3nc(C#N)ccc3-c3cnc(CC4(F)CC4)o3)cc2n1` [Example 100, 5-(2-((1-fluorocyclopropyl)methyl)oxazol-5-yl)-6-(2-methyl-imidazo[1,2-a]pyridin-7-yl)picolinonitrile] belongs 0.158 µM; to `Cc1cn2ccc(-c3nc(C#N)ccc3-c3cnc(CC(C)(C)C)o3)cc2n1` [Example 32, 6-(2-methylimidazo-[1,2-a]pyridin-7-yl)-5-(2-neopentyloxazol-5-yl)picolinonitrile], 0.069 µM.

With `Cc1ccc(-c2cnc(CC3CCCC3)o2)c(N2CCn3ccnc3C2)n1` [Example 56, 2-(cyclopentylmethyl)-5-(2-(5,6-dihydroimidazo[1,2-a]pyrazin-7(8H)-yl)-6-methylpyridin-3-yl)oxazole], the EC50 was determined as 0.011 µM.

As to `Cn1cnc2cc(-c3nc(C#N)ccc3-c3cnc(CC(C)(C)C(F)(F)F)o3)ccc21` [Example 114, 6-(1-methyl-1H-benzo[d]imidazol-5-yl)-5-(2-(3,3,3-trifluoro-2,2-dimethylpropyl)oxazol-5-yl)picolinonitrile], the EC50 came to 0.092 µM. To `Cc1ccc(-c2cnc(CC3CCCC3)o2)c(-c2ccc3c(c2)C(=O)N(C)C3)n1` [Example 46, 6-(3-(2-(cyclopentylmethyl)oxazol-5-yl)-6-methylpyridin-2-yl)-2-methylisoindolin-1-one] belongs 0.013 µM; to `Cc1cn2ccc(-c3nc(C#N)ccc3-c3cnc(CC(F)C4CC4)o3)cc2n1` (stereo not drawn) [Example 87, 5-(2-(2-cyclopropyl-2-fluoroethyl)oxazol-5-yl)-6-(2-methylimidazo [1,2-a]pyridin-7-yl) picolinonitrile], 0.044 µM; to `N#Cc1ccc(-c2cnc(CC3(F)CCCC3)o2)c(-c2ccc3cccnc3c2)n1` [Example 72, 5-(2-((1-fluorocyclopentyl)methyl)oxazol-5-yl)-6-(quinolin-7-yl)picolinonitrile], 0.051 µM. With `Cc1cn2ccc(-c3nc(C#N)ccc3-c3cnc(CC(C)(C)F)o3)cc2n1` [Example 86, 5-(2-(2-fluoro-2-methylpropyl)oxazol-5-yl)-6-(2-methylimidazo [1,2-a]pyridin-7-yl) picolinonitrile] the figure was 0.101 µM; with `Cc1cn2ccc(-c3nc(C#N)ccc3-c3cnc(CC(C)(C)C(F)(F)F)o3)cc2n1` [Example 33, 6-(2-methylimidazol-[1,2-a]pyridin-7-yl)-5-(2-(3,3,3-trifluoro-2,2-dimethylpropyl)-oxazol-5-yl)picolino-nitrile], 0.072 µM; with `COc1cc2ccc(-c3nc(C(F)F)ccc3-c3cnc(CC(C)(C)C)o3)cc2nn1` [Example 14, 5-(6-(difluoro-methyl)-2-(3-methoxycinnolin-7-yl)pyridin-3-yl)-2-neopentyloxazole], 0.172 µM. `CC(C)(C)CCc1ncc(-c2ccc(C#N)nc2-c2ccc3cccnc3c2)o1` [Example 65, 5-(2-(3,3-dimethylbutyl)oxazol-5-yl)-6-(quinolin-7-yl)picolinonitrile]: the EC50 worked out at 0.096 µM. To `COc1cc2ccc(-c3nc(C)ccc3-c3cnc(Cc4ccc(F)cc4)o3)cc2nn1` [Example 54, 2-(4-fluorobenzyl)-5-(2-(3-methoxycinnolin-7-yl)-6-methylpyridin-3-yl)oxazole] belongs 0.045 µM.
